Test system: Co-Kultur-System
Assay: Collagen neosynthesis in co-culture system (2D fibroblast culture with 3D epidermis model insert), P1 NP secreted into the medium
Assay type: cell-based
Settings: unbehandelt = 107
Source text: Zum Nachweis der Kollagen-Neusynthese wurde ein Co-Kultur-System verwendet, das aus einer zweidimensionalen Fibroblasten-Kultur besteht, auf die in einem Insert ein dreidimensionales Epidermismodell aufgesetzt wurde. Über das Nährmedium kann ein Stoffaustausch zwischen den Fibroblasten und den Keratinocyten des Epidermismodells erfolgen.
Als Kontrollen für die Syntheseinduktion wurden Retinsäure und Retinol eingesetzt.

SMILES: CC1=C(/C=C/C(C)=C/C=C/C(C)=C/C(=O)O)C(C)(C)CCC1 [Retinsäure]
- P1 NP (Retinsäure 5µM): 200 µg/mL

SMILES: CC(C)(C)C(=O)C(Oc1ccc(Cl)cc1)n1ccnc1 (stereo not drawn) [Climbazol, Imidazolyl-1-(4-chlorophenoxy)-3,3-dimethylbutane-2-one]
- P1 NP (Climbazol 0,005%): 135 µg/mL

SMILES: CC1=C(/C=C/C(C)=C/C=C/C(C)=C/CO)C(C)(C)CCC1 [Retinol]
- P1 NP (Retinol 5µM): 146 µg/mL

From patent publication EP2628479A1, “Cosmetic use of climbazol” (Henkel AG&Co. KGAA, priority 2011, dated 2013)
